Key:
Type in all cases: in vivo, rat
agrin mRNA = experiment: RT-PCR of agrin gene expression (C-terminal primers) in L3-5 spinal cord
Method: Gene expression alterations after the nerve injury: Gene expression for amino(“N”)- and carboxy(“C”)-terminal halves of agrin was analyzed from L3-5 spinal cord of the rats (sacrificed at 2 hr, 24 hr, 3 days, and 7 days post surgery), using RT-PCR and real-time PCR. The differences in gene expression between sham-operated and nerve-injured groups were compared.
Total RNA extraction: The rats were deeply anesthetized with isoflurane and decapitated. The spinal cord from L3-5 was quickly removed and immediately put into a tube containing TRIzol® (2 ml, Invitrogen, Carlsbad, Calif.). The tissue was homogenized with IKA® T8 homogenizer (IKA®, Staufen, Germany) for 2 min, allowed to stand at room temperature for 3 min, and 0.4 ml chloroform added. The tube was vortexed and centrifuged at 12,000×g for 15 min. The water phase was transferred to a clean tube without any contamination from other phases. Then 1 ml isopropanol was added to the water phase, and the mixture allowed to stand for 10 min at room temperature. The tube was centrifuged for 10 min at 12,000×g. The supernatant was discarded, and the pellet washed with 1 ml 70% ethanol. The ethanol was discarded, and the RNA was re-dissolved in 30 μl nucleotide-free water. A 1 μl aliquot was taken and reserved to dilute 20-fold for RNA quality control. […]
[…]. Changes in agrin gene induced by the injected drug was analyzed and compared.

agrin protein = experiment: Western blot of agrin protein in L3-5 spinal cord
Method: Western blot for detecting protein expression of agrin: Agrin protein was analyzed from L3-5 spinal cord with Western blot as described below at times of 1 day, 3 days, and 7 days post-surgery. The changes in these proteins between sham-operated, nerve-injured (no drug), and nerve-injured (pre-emptive drug) groups were analyzed.
Agrin Protein Extraction: The rats were deeply anesthetized with isoflurane and decapitated. Spinal cord L3-5 was quickly removed and immediately placed into tissue lysis buffer (1 ml, Sigma Co., St. Louis, Mo.) that contained protein enzyme inhibitors (1:100, Halt, Pierce). The tissue was homogenized for 2 min and incubated on ice for 45 min. The sample was then centrifuged at 10,000×g for 30 min at 4° C. The supernatant was transferred to a new tube and centrifuged again for further clarifying. The concentration of the protein was determined by an Agilent's Bio-Rad protein chip (Agilent's 2100 bioanalyzer, Santa Clara, Calif.) and by the […] (reagents from Bio-Rad).
Western blot: Protein (20 μg) from each sample was mixed with 2× electrophoresis buffer and boiled for 5 min. The samples, along with a negative control, were loaded on 4-15% acrylamide tris-glycine SDS gels and electrophoresed in a cell (Bio-Rad) for approximately 1 hr. A Hybond-P polyvinylidene difluoride membrane (Bio-Rad, Hercules, Calif.) was used for transferring the protein in a mini-trans-blot transfer cell (Bio-Rad) for 2 hr. The membrane was then soaked in 2% milk for 1 hour and probed with monoclonal agrin antibody (Agr510 and Agr530, 1:5000, StressGen Biotechnologies Corp., Victoria, Canada) or β-actin antibody (1:5000) at 4° C. overnight with continual shaking. The following day goat anti-mouse secondary antibody conjugated to Alexa Fluor680 (1:5000, Molecular Probe) was added to the membrane and incubated for 1 hr at room temperature. The samples were washed three times with TBS buffer (Tris Buffered Saline, DAKO, Carpinteria, Calif.) between steps. The membrane was then scanned with an Odyssey (LI-COR) scanner and analyzed by Odyssey software (Li-Cor, Lincoln, Nebr.).
In rats with tactile allodynia (a withdrawal threshold with a filament below 8 g), an intrathecal catheter (PE 10) was installed and linked to an osmotic pump (Alzet) in a 37° C. water bath. Following a bolus injection of SCP-1 (30 nmol/kg, 10 μl), agrin siRNA (100 nM) was intrathecally administered continuously by the pump at a rate of 5 μl/1 hour for 4 hr. The animals were subjected to von Frey filament test every 15 min for 4 hr to determine whether the effects of SCP-1 on allodynia suppression are blocked by agrin siRNA. A control siRNA (nFsiRNA) was applied in the same way. The behavioral data was analyzed for agrin effects. […]

[1] = system: tactile allodynia in allodynic rats; experiment: Tactile allodynia test (von Frey filaments, paw withdrawal threshold) in CCI (Bennett model) rats; details: for effect on tactile allodynia: day 7 after injury

Q: Which results are given for `O=C(CN1C(=O)c2ccccc2S1(=O)=O)Nc1ccc(O)cc1` [SCP-1]?
A: agrin mRNA (agrin mRNA; allodynic rats, intrathecal injection 7 days post injury, one- and two-hour post injection): increased; agrin mRNA (agrin mRNA; pre-emptive intrathecal injection prior to CCI, 3 and 7 days post-injury): did not show a decrease in agrin mRNA; agrin protein level (agrin protein; allodynic rats, 2 h post-SCP-1 injection): up-regulated to a normal level; agrin protein (agrin protein; pre-emptive intrathecal injection prior to CCI, 3 and 7 days): did not decrease; duration of suppressive effect ([1]; Example 9: SCP-1 alone): at least 4 hr; effect on tactile allodynia ([1]; intrathecal 1 nmol): did not affect tactile allodynia; effect on tactile allodynia ([1]; intrathecal 10 nmol): did not affect tactile allodynia; effect on tactile allodynia ([1]; intrathecal 50 nmol): only a mild effect; withdrawal threshold at 2 hr post-injection ([1]; intrathecal 100 nmol): 27.3 ± 2.5 g; withdrawal threshold at 90 min after injection ([1]; intrathecal 100 nmol, basal threshold 4.6±1.1 g): 28 ± 2.4 g; effect on tactile allodynia ([1]; intrathecal 200 nmol): suppressed the tactile allodynia; effect on tactile allodynia (paw withdrawal threshold) ([1]; pre-emptive intrathecal 100 nmol in 10 μl saline immediately prior to CCI, 0, 3, 7 days): prevented; duration of prevention of tactile allodynia ([1]; pre-emptive intrathecal 100 nmol prior to CCI): up to 7 days; effect on paw withdrawal threshold at 7 days ([1]; pre-emptive intrathecal 100 nmol prior to CCI, 7 days after injury): remained strong

Reference: US20100004171A1, “Therapeutic Methods for Neuropathic Pain” (priority 2006, published 2010)
